Data on three molecules can be found in patent US20250154109A1, “SODIUM CHANNEL BLOCKING COMPOUNDS, DERIVATIVES THEREOF, AND METHODS OF THEIR USE” (LATIGO BIOTHERAPEUTICS, INC, priority 2022, published 2025).

The subject of data set [1] is human plasma protein. Briefly: Human plasma protein binding by equilibrium dialysis. It counts as in vitro ADME. To be noted: for Human Plasma, Unbound %: equilibrium dialysis; for Fold increase vs Comparatror (human plasma unbound): ratio of unbound % sulfoximine / comparator sulfonamide. The source says:
(§1) Table 3 presents the human and rat plasma protein binding data (% unbound) for the compounds of Table 2.
(§2) Comparator compounds A, B, C have been previously reported as inhibitors of Na, 1.8 in WO2020/092667. Comparator D, not previously reported, is offered as an additional sulfonamido example.
In general terms: Equilibrium dialysis compares concentrations on both sides of a semipermeable membrane.

Data set [2] relates to rat plasma protein. In words: Rat plasma protein binding by equilibrium dialysis. It counts as in vitro ADME. Conditions: for Rat Plasma, Unbound %: equilibrium dialysis; for Fold increase vs Comparator (rat plasma unbound): ratio of unbound % sulfoximine / comparator sulfonamide.
From the text: as §1, §2

Data set [3] has as its target human Nav1.8 (Homo sapiens, UniProt Q9Y5Y9). Briefly: SyncroPatch384PE assay (automated patch clamp). It counts as cell-based. To be noted: human Nav1.8/b3 CHO cells. (Patch clamp records ionic current or voltage across a cell membrane.)
The mark [4] stands for this setting: inactivated state block (P2 measurement), read-out: P2 IC50.
The mark [5] stands for this setting: resting state block (P1 measurement), read-out: P1 IC50.

Structures are written as SMILES. Like-named read-outs stand apart in the source and are kept apart here.

human Nav1.8, sequence (Q9Y5Y9 whole entry): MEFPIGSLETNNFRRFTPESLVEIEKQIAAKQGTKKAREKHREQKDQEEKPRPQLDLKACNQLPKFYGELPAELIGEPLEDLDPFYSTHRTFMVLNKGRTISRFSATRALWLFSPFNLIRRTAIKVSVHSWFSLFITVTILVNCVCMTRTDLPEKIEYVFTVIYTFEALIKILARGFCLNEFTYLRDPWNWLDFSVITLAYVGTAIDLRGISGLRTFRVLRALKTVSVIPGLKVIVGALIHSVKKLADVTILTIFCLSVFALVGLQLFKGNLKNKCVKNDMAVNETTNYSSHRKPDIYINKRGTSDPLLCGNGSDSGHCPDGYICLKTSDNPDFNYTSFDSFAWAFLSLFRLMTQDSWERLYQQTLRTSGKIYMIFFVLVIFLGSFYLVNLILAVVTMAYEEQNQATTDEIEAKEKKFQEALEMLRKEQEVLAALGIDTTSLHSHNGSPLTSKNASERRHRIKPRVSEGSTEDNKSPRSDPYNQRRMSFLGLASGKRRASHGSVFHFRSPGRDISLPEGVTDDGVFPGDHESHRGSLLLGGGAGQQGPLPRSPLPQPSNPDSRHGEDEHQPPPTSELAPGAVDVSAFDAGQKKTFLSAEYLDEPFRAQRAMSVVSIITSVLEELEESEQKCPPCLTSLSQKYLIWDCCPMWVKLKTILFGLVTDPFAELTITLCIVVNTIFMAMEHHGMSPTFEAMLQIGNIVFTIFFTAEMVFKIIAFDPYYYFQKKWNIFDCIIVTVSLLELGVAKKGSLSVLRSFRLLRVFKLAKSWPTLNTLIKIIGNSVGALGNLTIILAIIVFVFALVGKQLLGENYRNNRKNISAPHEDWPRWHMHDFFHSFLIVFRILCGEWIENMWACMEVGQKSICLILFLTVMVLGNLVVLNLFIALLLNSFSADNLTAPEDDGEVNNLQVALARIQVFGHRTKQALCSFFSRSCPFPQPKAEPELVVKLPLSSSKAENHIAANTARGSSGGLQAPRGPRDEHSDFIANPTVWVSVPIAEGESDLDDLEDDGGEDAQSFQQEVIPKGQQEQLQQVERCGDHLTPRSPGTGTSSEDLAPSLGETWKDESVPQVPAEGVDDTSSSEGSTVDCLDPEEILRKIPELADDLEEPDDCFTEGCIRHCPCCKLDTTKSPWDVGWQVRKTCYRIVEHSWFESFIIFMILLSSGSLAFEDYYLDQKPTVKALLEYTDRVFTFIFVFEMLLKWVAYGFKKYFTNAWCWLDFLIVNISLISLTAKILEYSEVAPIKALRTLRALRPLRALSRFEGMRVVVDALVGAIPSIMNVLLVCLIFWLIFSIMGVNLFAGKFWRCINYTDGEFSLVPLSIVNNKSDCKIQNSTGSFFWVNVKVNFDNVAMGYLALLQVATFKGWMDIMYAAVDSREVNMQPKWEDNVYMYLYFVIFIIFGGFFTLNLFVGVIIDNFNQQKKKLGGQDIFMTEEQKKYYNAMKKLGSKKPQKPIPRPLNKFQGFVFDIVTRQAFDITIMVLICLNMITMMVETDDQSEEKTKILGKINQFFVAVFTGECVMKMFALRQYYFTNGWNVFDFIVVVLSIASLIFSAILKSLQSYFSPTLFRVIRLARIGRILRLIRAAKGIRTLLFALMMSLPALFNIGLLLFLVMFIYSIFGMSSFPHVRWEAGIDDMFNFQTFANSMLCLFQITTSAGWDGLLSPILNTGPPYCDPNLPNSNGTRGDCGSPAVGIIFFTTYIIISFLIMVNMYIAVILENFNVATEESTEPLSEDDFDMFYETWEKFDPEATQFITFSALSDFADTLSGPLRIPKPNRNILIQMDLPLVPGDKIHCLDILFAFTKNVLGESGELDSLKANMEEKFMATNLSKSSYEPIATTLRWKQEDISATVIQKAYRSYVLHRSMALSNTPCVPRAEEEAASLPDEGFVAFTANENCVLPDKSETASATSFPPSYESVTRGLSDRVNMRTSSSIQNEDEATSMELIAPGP

As for `Cc1nc(N2CCCC(F)(F)CC2)c(C(=O)Nc2ccnc(S(C)(=N)=O)c2)cc1C(F)(F)F` (centres unmarked) [Example 101, 2-(4,4-difluoroazepan-1-yl)-6-methyl-N-(2-(S-methylsulfonimidoyl)pyridin-4-yl)-5-(trifluoromethyl)nicotinamide], in data set [1], the “Human Plasma, Unbound %” value is on record as 1.8% and the “Fold increase vs Comparatror (human plasma unbound)” value came to 7.5×. In addition, in data set [2], the “Rat Plasma, Unbound %” value came to 3.55% and the “Fold increase vs Comparator (rat plasma unbound)” value was 6.8×. In data set [3] (setting [4]), the IC50 – broadly, the concentration that gives 50% inhibition – is no more than 5 nM. Further, in data set [3] (setting [5]), the IC50 was no more than 5 nM.

Take `Cc1nc(N2CCCC(F)(F)CC2)c(C(=O)Nc2cccc([S@](C)(=N)=O)c2)cc1C(F)(F)F` [Example 4, (R)-2-(4,4-difluoroazepan-1-yl)-6-methyl-N-(3-(S-methylsulfonimidoyl)phenyl)-5-(trifluoromethyl)nicotinamide]: in data set [1], the “Human Plasma, Unbound %” value is 0.9% and the “Fold increase vs Comparatror (human plasma unbound)” value is listed as 2.9×. Moreover, in data set [2], the “Rat Plasma, Unbound %” value is on record as 1.9% and the “Fold increase vs Comparator (rat plasma unbound)” value amounted to 6.1×. Also, the IC50 in data set [3] (setting [4]) was no more than 5 nM. In addition, in data set [3] (setting [5]), the IC50 was no more than 5 nM.

Regarding `Cc1nc(N2CCCC(F)(F)CC2)c(C(=O)Nc2cccc(S(C)(=N)=O)c2)cc1Cl` (stereo in doubt) [Example 17, (S)-5-Chloro-2-(4,4-difluoroazepan-1-yl)-6-methyl-N-(3-(S-methylsulfonimidoyl)phenyl)nicotinamide], in data set [1], the “Human Plasma, Unbound %” value worked out at 1.7% and the “Fold increase vs Comparatror (human plasma unbound)” value turned out to be 3.2×. In data set [2], the “Rat Plasma, Unbound %” value is on record as 3.0% and the “Fold increase vs Comparator (rat plasma unbound)” value is given as 1.9×. Moreover, in data set [3] (setting [5]), the IC50 was no more than 5 nM.
